Read-outs that look alike come from different tables or passages of the source. Blank lines part the entries; values can stand above or below the compound they belong to.
How the values were obtained:
[1] = Fluorescence intensity response to glucose in solution; conditions: for decrease in fluorescence intensity: 0.60 mM glucose, pH 6 to 7 range, buffered solution
Protocol: All steady state fluorescence measurements were performed in a 4×1×1 cm fluorometric plastic cuvette, using a Varian Cary Eclipse fluorometer, and all absorption measurements were performed using a Varian UV/VIS 50 spectrophotometer. […]
The emission spectra of o-BMOQBA in the presence of varying concentrations of glucose and fructose are shown in FIG. 12A and FIG. 12B, respectively. It can be seen that the fluorescence intensity of o-BMOQBA in pH 7.5 phosphate buffer is inversely proportional to the glucose and fructose concentrations. […] A plot of the intensity ratio, I′/I, at λ=450 nm, where I′ and I represent the fluorescence intensities in the absence and presence of sugar, respectively, is shown in FIG. 12C. […] Referring to FIG. 12C, there is a 2.8-fold change in intensity by the addition of 60 mM sugar.
(§1) The intensity ratio at λ=450 nm for o-BMOQBA in buffered media (pH 5-8) at various glucose concentrations is shown in FIG. 16A, wherein I′ corresponds to the intensity in the absence of glucose and I corresponds to the intensity at the specified glucose concentration. In addition, the intensity ratio for o-BMOQBA in buffered media (pH 5-8) at low glucose concentrations, typical of those found in tears, is shown in FIG. 16B. Correspondingly, the intensity ratio for o-BMOQBA in buffered media (pH 5-8) at various fructose concentrations is shown in FIGS. 17A and 17B.
Each BAF was tested to determine the usefulness of these BAFs with regard to tear glucose sensing in a contact lens. Towards that end, both solution-based and doped contact lens-based measurements, the methods of which are described above, were performed and subsequently compared.

[2] = Fluorescence intensity response to fructose in solution
Protocol: (§2) All steady state fluorescence measurements were performed in a 4×1×1 cm fluorometric plastic cuvette, using a Varian Cary Eclipse fluorometer, and all absorption measurements were performed using a Varian UV/VIS 50 spectrophotometer.
The emission spectra of o-BMQBA in the presence of varying concentrations of fructose and glucose are shown in FIG. 4A and FIG. 4B, respectively. It can be seen that the fluorescence intensity of o-BMQBA in pH 7.5 phosphate buffer is inversely proportional to the glucose and fructose concentrations. […] A plot of the intensity ratio, I′/I, at λ=427 nm, where I′ and I represent the fluorescence intensities in the absence and presence of sugar, respectively, is shown in FIG. 4C. […] It is noted that the concentration of fructose in blood is ˜10 times lower than glucose, a relationship which is also thought to occur in tears (N. Dicesare, et. al., J. Bio. Med. Opt., 7(4), 538-545 (2002)).
as §1, with “ratio” for “ratio at λ=450 nm”, “o-BMQBA” for “o-BMOQBA”, “8A,” for “16A,”, “8B.” for “16B.”, “9A” for “17A”, “9B.” for “17B.”
Because physiological fluids contain chloride ions, which are well known quenchers of quinolinium fluorescence (Geddes, C. D., Meas. Sci. Technol., 12(9), R53-R88 (2001); Geddes, C. D., et al., J. Heterocyclic Chem., 36(4), 949-951 (1999); Geddes, C. D., et al., Anal. Biochem., 293(1), 60-66 (2001)), the fluorescence intensity and intensity ratios of o-BMQBA in pH 7.5 buffer having 100 mM NaCl with varying quantities of fructose or glucose was measured and shown in FIGS. 10 and 11, respectively, where I′ corresponds to the intensity in the absence of fructose and I corresponds to the intensity at the specified fructose concentration. It can be seen that although chloride quenched the intensity of the emission in the presence of fructose, the intensity ratio change for fructose is still significant, amounting to a 4-fold decrease in fluorescence intensity at 60 mM fructose (see FIG. 10B). The quenching effect was less significant at lower concentrations of fructose (see FIG. 10C) and for glucose concentrations, both high and low (see FIGS. 11B and 11C). This minimal quenching effect for BMQBA is supported by the calculated Stern-Volmer constants, KSV, for the BMQBA compounds in water, which were determined to be 44.0 M^−1, 20.0 M^−1, 17.0 M^−1 and 35.0 M^−1 for o-BMQBA, m-BMQBA, p-BMQBA and BMQ, respectively. These are small quenching constants that are readily accounted for using simple corrections in the fluorescence signal, as readily determined by one skilled in the art of fluorescence.
as §1
Each BAF was tested to determine the usefulness of these BAFs with regard to tear glucose sensing in a contact lens. Towards that end, both solution-based and doped contact lens-based measurements, the methods of which are described above, were performed and subsequently compared. […]

[3] = Spectral properties in water (absorption, emission, quantum yield, lifetime); type: physicochemical; conditions: for φf (quantum yield): relative to SPQ (φf=0.53 in water)
Protocol: as §2
Time-solved intensity decays were measured using reverse start-stop time-correlated single-photon timing (TCSPC) with a Becker and Hickl Gmbh 630 SPC PC card and unamplified MCP-PMT. Vertically polarized excitation at ˜372 nm was obtained using a pulsed LED source (1 MHz repetition rate) and a dichroic sheet polarizer. The instrumental response function was ˜1.1 ns fwhm. The emission was collected at the magic angle (54.7°) using a long pass filter (Edmund Scientific) which cut-off the excitation wavelengths.
The intensity decays were analyzed in terms of the multi-exponential model:
[formula] where αi are the amplitudes and τi are the decay times, Σαi=1.0. The fractional contribution of each component to the steady-state intensity is given by:
The mean lifetime of the excited state is given by:
The values of αi and τi were determined by non-linear least squares impulse reconvolution with a goodness-of-fit χ^2R criterion.
A representative absorption and emission spectra for o-BMQBA in water is shown in FIG. 3B, which corresponds to all three isomers and BMQ. BMQBA has a strong absorption band at ˜320 nm, which can be assigned to n→π* transitions, and an excitation band at ˜427 nm, and as such, has a large Stokes shift of about 100 nm, which is ideal for fluorescence sensing. The quantum yield values of the BMQBA compounds in water relative to N-(3-sulfopropyl)-6-methoxyquinolinium (SPQ) (φf=0.53 in water) are shown in Table 1. The low quantum yields and relatively short lifetime of the BMQBA and BMQ molecules can be attributed to a photo-induced electron transfer, whereby the phenyl ring acts as the donor and the quinolinium moiety acts as the acceptor.
A representative absorption and emission spectra for o-BMOQBA in water is shown in FIG. 3A, which corresponds to all three isomers and BMOQ. BMOQBA has a strong absorption band at ˜345 nm, which can be assigned to n→π* transitions, and an excitation band at ˜450 nm, and as such, has a large Stokes shift of about 100 nm, which is ideal for fluorescence sensing. The quantum yield values of the BMOQBA compounds in water relative to N-(3-sulfopropyl)-6-methoxyquinolinium (SPQ) (φf=0.53 in water) are shown in Table 2. […] We can only speculate as to the quantum yield differences between the m-BMOQBA and p-BMOQBA compounds, which may be attributed to through-bond and through-space mechanisms.

[4] = in water; cited from earlier work
[5] = Fluoride sensing by fluorescence
Description: Moreover, because the quenching of fluorescence is not a selective process, any fluorophore quenched by chloride is also quenched by bromide and iodide to an even more substantial extent, allowing for the determination of bromide or iodide concentrations as well. Generally, fluorophores that are quenched by chloride are not quenched by fluoride, which is often attributed to the “heavy-atom effect” (Geddes, C. D., Meas. Sci. Technol., 12, R53 (2001); Lakowicz, J. R., Principles of Fluorescence Spectroscopy, 2nd ed., Kluwer/Academic Plenum Publishers, New York, 1997).

[6] = pKa from normalized fluorescence intensity versus pH, with and without 100 mM sugar; type: physicochemical
Description: A normalized plot of intensity at 427 nm as a function of pH is shown in FIG. 6, wherein I is the emission intensity at the specified pH and Io is the initial emission intensity at pH 3.0. Though not to be bound by theory, it is likely that the change in fluorescence intensity relative to pH value is attributed to the change in hybridization of the boron atom with increasing pH. At low pH values, the boronic acid group is an electron-deficient Lewis acid that is sp^2-hybridized and thus is trigonal planar. As the pH increases, the anionic form of the boronic acid begins to form, which corresponds to a more electron rich sp^3-hybridized boron atom and an […] shape. The change in the geometry of the boron atom induces the fluorescence spectral changes of the molecular sensing moieties.
Based on previously reported pKa values for boronic acid compounds, these pKa values are the lowest reported for a phenyl boronic acid derivative. The quaternary nitrogen of the quinolinium moiety not only reduces the pKa of the compound, but also stabilizes the anionic boronate diester complex (represented by D in FIG. 1), which may explain the affinity of sugar for these novel compounds. Importantly, the large decrease in the pKa of the boronic acid-sugar complex relative to the uncomplexed boronic acid, allows for the quantitative detection of monosaccharides at or below physiological pH because substantial optical changes are observed.
A normalized plot of intensity at 450 nm as a function of pH is shown in FIG. 14, wherein normalized intensity is the emission intensity at the specified pH, I, relative to the initial emission intensity at pH 3.0, Io. As discussed with reference to o-BMQBA, the change in the geometry of the boron atom may explain the fluorescence spectral changes of the molecular sensing moieties.
Comparing the pKa values of previously reported boronic acid compounds relative to the novel BMOQBA isomers, these pKa values are relatively low. As discussed with reference to o-BMQBA, the lower pKa values can be attributed to the increased Lewis acidity of the boronate diester complex (represented by D in FIG. 1). Importantly, the large decrease in the pKa of the boronic acid-sugar complex relative to the uncomplexed boronic acid, allows for the quantitative detection of monosaccharides at or below physiological pH because substantial optical changes are observed.

[7] = Dissociation constant from fluorescence titration with glucose; type: binding; conditions: pH 7.5 phosphate buffer
Description: (§3) Stability (KS (mM^−1) and dissociation (KD) constants were obtained by fitting the titration curves with sugar to the relation:
(§4) [formula] where Imin and Imax are initial (no sugar) and final (plateau) fluorescence intensities of the titration curves and KD=(1/KS).

[8] = Dissociation constant from fluorescence titration with fructose; type: binding; conditions: pH 7.5 phosphate buffer
Description: as §3, §4

[9] = buffer with 100 mM fructose, 100 mM fructose, read-out: pKa (buffer + fructose)
[10] = buffer with 100 mM glucose, 100 mM glucose, read-out: pKa (buffer + glucose)
[11] = buffer without sugar, absence of sugar, read-out: pKa (buffer)

Structure (SMILES): CN(C)c1ccc(/C=C/c2ccc(B(O)O)cc2)cc1 [DSTBA, 4′-dimethylaminostilbene-4-boronic acid]
- ratiometric change in intensity ([1]; 60 mM glucose, pH 8.0 buffer/methanol (2:1)): 2 fold
- ratiometric change in intensity ([2]; 60 mM fructose, pH 8.0 buffer/methanol (2:1)): 4.5 fold
- blue shift of emission spectra ([2]; fructose 0 mM→100 mM, pH 8.0 buffer/methanol (2:1)): about 30 nm

- λabs (max) [3]: 322 nm
- λem (max) [3]: 427 nm
- τf (mean lifetime) [3]: 2.59 ns
- φf (quantum yield) [3]: 0.045
Structure (SMILES): Cc1ccc2c(ccc[n+]2Cc2ccccc2)c1 [BMQ, N-benzyl-6-methylquinolinium bromide]

Structure (SMILES): CN(C)c1ccc(/C=C/C=C/C(=O)c2ccc(B(O)O)cc2)cc1 [Chalc 2, 5-[4′-(dimethylamino)phenyl]-1-(4′-boronophenyl)-pent-2,4-dien-1-one]
- increase in fluorescence emission ([2]; 100 mM fructose, pH 8.0, solution): 3 fold

Structure (SMILES): COc1ccc2c(ccc[n+]2CCCS(=O)(=O)O)c1 [SPQ, N-(3-sulfopropyl)-6-methoxyquinolinium]
- φf (quantum yield) of reference standard [4]: 0.53

Structure (SMILES): Nc1ccc2c(ccc[n+]2Cc2ccccc2B(O)O)c1.[Br-] [BAQBA, N-(2-boronobenzyl)-6-aminoquinolinium bromide]
- detectable fluoride concentration [5]: below 50 mM

- λem (max) [3]: 450 nm
- τf (mean lifetime) [3]: 26.7 ns
- φf (quantum yield) [3]: 0.46
- pKa [6, 9]: 4.8
- pKa [6, 10]: 6.62
- pKa [6, 11]: 7.9
- Kd [7]: 49.5 mM
- Kd [8]: 0.65 mM
Structure (SMILES): COc1ccc2c(ccc[n+]2Cc2ccccc2B(O)O)c1.[Br-] [o-BMOQBA, N-(2-boronobenzyl)-6-methoxyquinolinium bromide]
- decrease in fluorescence intensity [1]: 5-10%
- change in intensity (I′/I at 450 nm) ([1]; addition of 60 mM sugar, pH 7.5 phosphate buffer (FIG. 12C)): 2.8 fold
- decrease in fluorescence intensity ([2]; 0.50 mM fructose, pH 6 to 7 range, buffered solution): 10-40%

- λabs (max) [3]: 319 nm
- λem (max) [3]: 427 nm
- τf (mean lifetime) [3]: 4.01 ns
- φf (quantum yield) [3]: 0.043
- pKa [6, 9]: 5.08
- pKa [6, 10]: 6.18
- pKa [6, 11]: 6.92
- Kd [7]: 100 mM
- Kd [8]: 4.7 mM
Structure (SMILES): Cc1ccc2c(ccc[n+]2Cc2ccccc2B(O)O)c1.[Br-] [o-BMQBA, N-(2-boronobenzyl)-6-methylquinolinium bromide]
- decrease in fluorescence intensity [1]: ~10%
- decrease in fluorescence intensity ([2]; 60 mM fructose, pH 7.5 buffer with 100 mM NaCl): 4 fold

Structure (SMILES): N#Cc1ccc(/C=C/c2ccc(B(O)O)cc2)cc1 [CSTBA, 4′-cyanostilbene-4-boronic acid]
- red shift of emission spectra ([2]; increasing fructose, pH 8.0 buffer/methanol (2:1)): about 25 nm

- λem (max) [3]: 453 nm
- τf (mean lifetime) [3]: 27.3 ns
- φf (quantum yield) [3]: 0.54
Structure (SMILES): COc1ccc2c(ccc[n+]2Cc2ccccc2)c1 [BMOQ, N-benzyl-6-methoxyquinolinium bromide]
